According to patent US20060025430A1, “Novel irreversible inhibitors of epidermal growth factor receptor tyrosine kinase and uses thereof for therapy and diagnosis” (priority 2003, published 2006):
“Also recorded” adds a separate entry of the source.

Key:
[1] = molecular target: T1, EGFR-TK (Homo sapiens, UniProt P00533); test: EGFR-TK autophosphorylation inhibition in intact A431 cells (irreversibility assay, Western blot); format: cell-based; conditions: for nature of binding to the receptor (irreversibility): intact A431 cells, inhibition 8 hours post incubation
T1 construct: The supernatant, which contained the EGFR, was collected and frozen; endogenous in cells; host or cells: A431 cells (A1: Triton X-100 lysate captured on mAb108; A2: intact cells)
Protocol: A431 cells (5×10^5) were seeded in 6-well plates and grown for 24 hours to about 90% confluence in DMEM (high glucose) containing 10% fetal calf serum (FCS) and antibiotics at 37° C. The cells were then exposed to serum-free medium, at 37° C., for 18 hours.
[…] The medium was replaced thereafter with an inhibitor/FCS-free medium and the cells were divided into two groups: cells of the first group were immediately stimulated with EGF (20 ng/ml) for 5 minutes and then washed with PBS, while cells of the second group were incubated for additional 8 hours, at 37° C. During the 8 hours period, the medium was changed three times (after 2, 4 and 8 hours). After the post-incubation period, the cells of the second group were stimulated with EGF (20 ng/ml) for 5 minutes and then washed with PBS.
Identical protein amounts from each lysate sample were loaded onto polyacrylamide gel (6% or 10%), separated by electrophoresis (Hoefer Pharmacia Biotech Inc., San Francisco, USA) and transferred to nitrocellulose membrane (power supply: EPS 500/400, Amersham Pharmacia Biotech; nitrocellulose extra blotting membranes: Sartorius AG, Goettingen, Germany). A standard high molecular weight solution was loaded as a reference. For visualization of molecular weight bands, the membrane was immersed in Ponceau reagent (0.05% Ponceau, 5% acetic acid) for a few minutes, and then washed twice with TTN (10 mM Tris pH 7.4, 0.2% TWEEN 20, 170 mM NaCl) and once with water. The membrane was blocked overnight in TTN containing 5% milk (1% fat) (blocking TTN) and incubated for 90 minutes with PY20 antiphosphotyrosine antibody (Santa Cruz Biotechnology Inc., Santa Cruz, USA) diluted 1:2,000 in blocking TTN. The membrane was then washed with TTN (3×5 minutes), incubated for 90 minutes with a horseradish peroxidase-conjugated secondary antibody (Goat anti-mouse IgG H+L, Jackson ImResearch Laboratories, Inc., diluted 1:10,000 in blocking TTN), and finally washed again with TTN (3×5 minutes).
After the incubation, the media was replaced with inhibitor/FCS-free media and the inhibition effect was measured either immediately thereafter or after 8 hours post incubation.

[2] = molecular target: T2, EGFR (Homo sapiens, UniProt P00533); test: Selective-inhibition assay in DHER14 cells (receptor phosphotyrosine, Western blot); format: cell-based; conditions: DHER14 cells expressing EGFR, 1 hour incubation, EGF stimulation
T2 construct: expressed in transfected cells; host or cells: NIH3T3 (DHER14 cells)
Protocol: (§1) NIH3T3 cells transformed with either the EGFR (DHER14 cells), with the HER1-HER2 chimera (CSH12 cells) or with the PDGFR (NIH/PDGFR cells), decribed by Lee et al.; 1989, Honegger et al., 1988; and Shawver et al. 1997, and A431 human epidermoid vulval carcinoma cells were grown in Dulbecco's modified Eagle's medium (DMEM) (Biological industries, Kibbuts Beit Haemek, Israel) supplemented with 10% fetal calf serum and antibiotics (penicillin […], streptomycin 100 mg/liter) at 37° C. in 5% CO2.
(§2) Selective-inhibition assay: CSH12, DHER14 and […] cells, expressing either the HER1-HER2 chimera, EGFR or PDGFR, respectively, were used for the determination of inhibitory selectivity. Cells (7.5×10^4) were grown in 6-well plates (35 mm diameter, Nalge Nunc) for 24 hours and then incubated in 0.25% FCS-containing medium for an additional 24 hours to about 90% confluence. Duplicate sets of cells were treated with the tested compounds at varying concentrations for 1 hour. The final concentration of the vehicle in the medium was 0.05% DMSO, 0.1% EtOH. After removal of the inhibitor from the medium, PBS wash (×2) and addition of 0.25% serum-containing medium to the wells, the cells were stimulated with either 20 ng/mL human EGF for 5 minutes (CSH12 and DHER14 cells) or 50 ng/ml human PDGFββ for 10 minutes ([…] cells) at 37° C. […]

[3] = molecular target: PDGFR (Homo sapiens, UniProt P09619); test: Selective-inhibition assay in […] cells (receptor phosphotyrosine, Western blot); format: cell-based; conditions: […] cells expressing PDGFR, 1 hour incubation, PDGFββ stimulation
Protocol: as §1, §2

[4] = Challenge reaction with reduced glutathione (HPLC conversion to conjugates); format: physicochemical; conditions: even at temperatures exceeding 100° C.
[5] = as above; format: physicochemical
Protocol: Standard solutions were prepared by dissolving compound 5, Compound 6 and {4-[(3,4-dichloro-6-fluorophenyl)amino]quinazol ine-6-yl}acrylamide (0.0146 mmol) in 1.75 ml of THF: MeOH (1:2) and glutathione (18 mg, 0.0586 mmol) in 0.5 ml of water. A 300 μL aliquot of the quinazoline standard solution (2.5 μmol) was diluted with 689 μL of THF:MeOH:H2O (1:2:1), after which 11 μL (1.25 μmol) of glutathione solution and 5.22 μL (30 μmol) of N,N′-diisopropylethylamine were added. Conversions of the quinazolines and formation of conjugates at different time points were measured by HPLC using RP (3.9×300 mm) column (mobile phase of acetonirile and acetate buffer 0.1 M (2:3) at a flow rate of 1 ml/min was used herein). The glutathione conjugates were further detected by MS.
As discussed hereinabove, EGFR blockade by irreversible inhibitors is due to the nucleophilic attack of the sulfhydryl group of Cys-773 at the receptor's ATP binding pocket on the reactive chemical group of the EGFR targeted inhibitor. In order to evaluate the chemical reactivity of the novel irreversibly EGFR inhibitors decribed herein, the degree of reactivity of the inhibitors towards the sulfhydryl group of reduced glutathione (GSH) as a nucleophile was tested. Thus, Compound 5, Compound 6 and {4-[(3,4-dichloro-6-fluorophenyl)amino]quinazoline-6-yl}acrylamide were dissolved in THF: MeOH: H2O (1:2:1), and were reacted at room temperature with half an equivalent of reduced glutathione in the presence of 12 equivalents of N,N-diisopropylethylamine. Identical aliquots of the reaction mixtures were taken at various time points and injected into reversed-phase HPLC in order to determine the conversion-rate of the various compounds into glutathione-conjugates. The characteristics of the products were determined using MS.
A study of the reaction rate as a function of the temperature was also performed. Thus, the reaction ws performed at various temperatures ranging from 0° C. and 60° C. The following activation parameters were generated: For {4-[(3,4-dichloro-6-fluorophenyl)amino]quinazoline-6-yl}acrylamide: Ea=5.24 kCalmol^−1, ΔH^#25° C.=4.64 kCalmol^−1 and ΔS^#25° C.=−61.24 Calmol^−1K^−1. For compound 5: Ea=11.4 kCalmol^−1, ΔH^#25° C.=10.80 kCalmol^−1 and ΔS^#25° C.=−41.29 Calmol^−1K^−1.
The reaction rate was calculated using the following rate equation: [formula] kobs=Ae^−Ea/RT

[6] = molecular target: T1, EGFR-TK; test: EGFR-TK autophosphorylation inhibition in A431 cell lysate (ELISA); format: biochemical; conditions: read-out: A431 lysate IC50 app
Protocol: All the following incubations were performed at room temperature and with constant shaking. […] The final volume for each well was 150 μl.
In this step the temperature was kept at 26° C. and the plate was under constant shaking. The incubation with ATP/MnCl2 was for 5 minutes.
Afterward, polyclonal anti-phosphotyrosine serum (Sugen, Inc.) was added (dilution of antibody in TBST containing 5% milk). The incubation was for 45 minutes.

[7] = Intact A431 cells IC50 range (1 hr post incubation with inhibitor), 1 hour incubation with inhibitor, medium replaced, EGF stimulation immediately
[8] = Intact A431 cells IC50 range (8 hr post incubation with inhibitor), 1 hour incubation, then 8 hours in inhibitor-free medium before EGF stimulation

T1 sequence (P00533 25-1210): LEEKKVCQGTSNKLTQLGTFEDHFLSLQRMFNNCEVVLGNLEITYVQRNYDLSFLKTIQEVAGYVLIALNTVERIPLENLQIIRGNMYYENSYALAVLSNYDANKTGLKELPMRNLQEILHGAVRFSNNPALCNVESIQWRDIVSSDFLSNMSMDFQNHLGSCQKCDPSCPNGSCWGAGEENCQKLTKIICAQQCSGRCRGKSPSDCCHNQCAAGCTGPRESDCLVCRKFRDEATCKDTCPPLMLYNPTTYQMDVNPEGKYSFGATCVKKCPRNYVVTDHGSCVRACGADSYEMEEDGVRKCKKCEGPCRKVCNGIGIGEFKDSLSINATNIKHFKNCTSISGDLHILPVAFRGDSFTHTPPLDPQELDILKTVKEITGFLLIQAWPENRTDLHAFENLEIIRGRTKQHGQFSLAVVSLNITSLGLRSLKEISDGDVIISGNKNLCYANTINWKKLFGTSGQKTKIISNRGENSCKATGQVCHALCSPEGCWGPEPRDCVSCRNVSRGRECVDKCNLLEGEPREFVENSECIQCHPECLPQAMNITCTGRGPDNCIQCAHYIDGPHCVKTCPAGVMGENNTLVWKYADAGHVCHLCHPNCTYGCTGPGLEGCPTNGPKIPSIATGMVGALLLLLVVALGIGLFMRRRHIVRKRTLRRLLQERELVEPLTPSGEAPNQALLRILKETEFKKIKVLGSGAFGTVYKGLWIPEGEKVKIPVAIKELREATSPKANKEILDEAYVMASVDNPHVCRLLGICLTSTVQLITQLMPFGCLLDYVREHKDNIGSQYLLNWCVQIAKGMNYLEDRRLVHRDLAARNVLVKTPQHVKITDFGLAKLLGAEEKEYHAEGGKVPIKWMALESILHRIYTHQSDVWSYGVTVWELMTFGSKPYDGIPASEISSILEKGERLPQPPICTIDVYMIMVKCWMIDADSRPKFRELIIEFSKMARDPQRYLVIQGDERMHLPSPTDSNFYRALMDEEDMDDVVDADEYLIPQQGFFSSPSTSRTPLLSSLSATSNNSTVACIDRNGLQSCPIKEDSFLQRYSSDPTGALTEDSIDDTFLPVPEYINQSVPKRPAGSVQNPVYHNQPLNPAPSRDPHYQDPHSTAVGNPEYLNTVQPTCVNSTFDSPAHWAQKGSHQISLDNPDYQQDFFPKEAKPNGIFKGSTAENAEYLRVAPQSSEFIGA
T2 sequence (P00533 25-1210): as above
PDGFR, sequence (P09619 whole entry): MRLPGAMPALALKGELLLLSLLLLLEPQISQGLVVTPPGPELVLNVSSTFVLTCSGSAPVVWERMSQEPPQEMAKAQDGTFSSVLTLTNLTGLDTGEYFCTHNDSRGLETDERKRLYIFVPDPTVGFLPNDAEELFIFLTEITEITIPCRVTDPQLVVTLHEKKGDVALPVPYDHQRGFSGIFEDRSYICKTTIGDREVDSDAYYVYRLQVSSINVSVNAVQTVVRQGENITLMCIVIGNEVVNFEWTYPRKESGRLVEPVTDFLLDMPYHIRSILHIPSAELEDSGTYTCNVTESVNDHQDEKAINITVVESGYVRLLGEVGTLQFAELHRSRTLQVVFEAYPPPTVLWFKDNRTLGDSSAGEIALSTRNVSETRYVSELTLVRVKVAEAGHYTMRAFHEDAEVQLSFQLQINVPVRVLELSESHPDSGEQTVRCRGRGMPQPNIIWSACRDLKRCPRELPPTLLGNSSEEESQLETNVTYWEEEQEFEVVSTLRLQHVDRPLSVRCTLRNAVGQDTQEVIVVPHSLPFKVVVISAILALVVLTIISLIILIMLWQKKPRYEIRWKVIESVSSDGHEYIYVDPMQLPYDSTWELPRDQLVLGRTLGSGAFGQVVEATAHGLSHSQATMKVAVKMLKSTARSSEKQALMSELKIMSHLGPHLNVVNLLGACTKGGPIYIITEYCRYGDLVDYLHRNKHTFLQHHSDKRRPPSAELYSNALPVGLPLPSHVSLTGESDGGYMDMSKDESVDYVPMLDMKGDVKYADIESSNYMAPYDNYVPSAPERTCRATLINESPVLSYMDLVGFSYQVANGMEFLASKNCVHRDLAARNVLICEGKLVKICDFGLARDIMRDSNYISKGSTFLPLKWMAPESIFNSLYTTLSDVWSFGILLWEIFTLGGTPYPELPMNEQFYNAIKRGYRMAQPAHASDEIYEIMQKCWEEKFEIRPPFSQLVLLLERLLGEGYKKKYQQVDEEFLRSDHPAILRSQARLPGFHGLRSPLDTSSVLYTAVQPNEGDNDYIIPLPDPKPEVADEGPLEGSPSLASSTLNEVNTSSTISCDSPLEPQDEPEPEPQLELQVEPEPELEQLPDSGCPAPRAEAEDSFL

SMILES | melting point [°C] | IC50 [1, 7] [nM] | IC50 [1, 8] [nM] | IC50 [6] [nM] | also measured
O=C(CCl)Nc1ccc2ncnc(Nc3cccc(Br)c3)c2c1 [Compound 1, N-{4-[(3-bromophenyl)amino]-quinazolin-6-yl}-2-chloroacetamide] | > 300 |  |  |  | 
COCC(=O)Nc1ccc2ncnc(Nc3cccc(Br)c3)c2c1 [Compound 2, N-{4-[(3-bromophenyl)amino]-quinazolin-6-yl}-2-methoxyacetamide] | 190 to 191 |  |  |  | 
O=C(CCl)Nc1ccc2ncnc(Nc3cccc(I)c3)c2c1 [Compound 3, N-{4-[(3-iodophenyl)amino]-quinazolin-6-yl}-2-chloroacetamide] | > 300 |  |  |  | 
COCC(=O)Nc1ccc2ncnc(Nc3cccc(I)c3)c2c1 [Compound 4, N-{4-[(3-iodophenyl)amino]-quinazolin-6-yl}-2-methoxyacetamide] |  |  |  |  | nature of binding to the receptor (irreversibility) [1]: partial irreversible
C=CC(=O)Nc1ccc2ncnc(Nc3cc(Cl)c(Cl)cc3F)c2c1 [Compound A, N-{4-[(3,4-dichloro-6-fluorophenyl)amino]quinazoline-6-yl}acrylamide, reference compound] |  |  |  |  | ΔH^# 25° C. of reaction with reduced glutathione ([5]; 25° C.): 4.64 kCalmol^−1; ΔS^# 25° C. of reaction with reduced glutathione ([5]; 25° C.): −61.24 Calmol^−1K^−1; reaction rate constant with reduced glutathione ([5]; room temperature, THF:MeOH:H2O (1:2:1), half an equivalent GSH, 12 equivalents N,N-diisopropylethylamine): 0.0001 M/min; activation energy Ea of reaction with reduced glutathione ([5]; temperatures from 0° C. to 60° C.): 5.24 kCalmol^−1
C=CC(=O)Nc1ccc2ncnc(Nc3cc(Cl)c(Cl)cc3F)c2c1 [drawing 14] |  | 5 to 50 | 5 to 50 |  | IC50 ([6]; apparent IC50, ELISA, 5 μM ATP/5 mM MnCl2, average of four dose-response curves): 0.037 nM
COCC(=O)Nc1ccc2ncnc(Nc3cccc(I)c3)c2c1 [drawing 18] |  | 1000 to 20000 | > 80000 | 65 | 

The next lines start with results.

melting point [°C] | IC50 [1, 7] [nM] | IC50 [1, 8] [nM] | IC50 [6] [nM] | SMILES | also measured
204 to 206 |  |  |  | COCC(=O)Nc1ccc2ncnc(Nc3cc(Cl)c(Cl)cc3F)c2c1 [Compound 6, N-{4-[(4,5-Dichloro-2-fluoro-phenyl)amino]-quinazolin-6-yl}-2-methoxyacetamide] | nature of binding to the receptor (irreversibility) [1]: partial irreversible; IC50 [2]: > 250 nM; IC50 [3]: > 1000 nM; change in the reaction rate with GSH with temperature [4]: no change in the reaction rate; also recorded: could not be detected
 | 1 to 20 | 1 to 20 | 5.55 | O=C(CCl)Nc1ccc2ncnc(Nc3cc(Cl)c(Cl)cc3F)c2c1 [drawing 19] | 
 |  | 10000 to 50000 | 113 | COCC(=O)Nc1ccc2ncnc(Nc3cc(Cl)c(Cl)cc3F)c2c1 [drawing 20] | 
